The structures appear in SMILES notation. ≈ marks a conversion by molar mass, not a printed value. Like-named read-outs stand apart in the source and are kept apart here. Bounds are passed on as bounds.

The nature of series [1]: Particle size distribution (PSD) study, laser particle size analyzer. Particulars: wet method, dispersion medium Isopar G. The series is classed as physicochemical. An excerpt: The result of particle size distribution (PSD) in the present disclosure was acquired by laser particle size analyzer with S3500 model from Microtrac company. The Microtrac S3500 is equipped with a SDC (Sample Delivery Controller) sampling system. This experiment uses a wet method and the dispersion medium is Isopar G. The method and parameters of the laser particle size analyzer are as follows:
The particle size distributions (PSD) of crystalline form A and crystalline form 1 and form 2 in CN101821269B were studied.

For series [2] the following is noted: cited from earlier work; for Solubility (in words): from CN101821270A and CN101821269B.
Series [3] can be described thus: Mechanical stability study (grinding, XRPD before and after). It counts as physicochemical. The note with it: ground for 5 minutes. The procedure: Crystalline form A of present disclosure was ground, and analyzed by XRPD before and after being ground for 5 minutes.
Series [4] is described as follows: Physical stability study (storage, XRPD before and after). The series is classed as physicochemical. Particulars: 1 month. The procedure: Crystalline form A was stored at 25° C./60% RH and 40° C./75% RH for one month.
Series [5] is described as follows: Solubility study in SGF, FeSSIF, FaSSIF and water. The series is classed as physicochemical. Here is the method: Crystalline form A samples were dissolved into 1 mL of simulated gastric fluid (SGF), fed state simulated intestinal fluid (FeSSIF, pH 5.0), fasted state simulated intestinal fluid (FaSSIF, pH 6.5) and water to test the corresponding solubility.

Regarding `C[C@]1(c2nc3cccc(C(N)=O)c3[nH]2)CCCN1` [Form 1, 2-[(2R)-2-methyl-2-pyrrolidinyl]-1H-benzimidazole-7-carboxamide], in series [1], the D10 is listed as 11.54 μm, the D50 was 18.89 μm, the D90 is recorded as 31.97 μm and the “MV (average based on volume)” value amounted to 20.89 μm. Moreover, in series [2] (listed as Crystalline form 1), the “Solubility (in words)” value was “better solubility”.
Regarding `C[C@]1(c2nc3c(C(N)=O)cccc3[nH]2)CCCN1` [crystalline form B, 2-[(2R)-2-methyl-2-pyrrolidinyl]-1H-benzimidazole-7-carboxamide], the solubility (as a rule, the dissolved amount per volume that the medium holds) in series [2] (after 24 hours in SGF, from CN105130961A) was 6000 µg/mL (≈ 24.6 mM).
For the compound `C[C@]1(c2nc3cccc(C(N)=O)c3[nH]2)CCCN1` [Form 2, 2-[(2R)-2-methyl-2-pyrrolidinyl]-1H-benzimidazole-7-carboxamide], in series [1], the D10 is listed as 8.99 μm, the D50 is 59.08 μm, the D90 is 231.9 μm and the “MV (average based on volume)” value was found to be 94.50 μm. Besides, the “Solubility (in words)” value in series [2] (listed as crystalline form 2) is “poor solubility”.
`C[C@]1(c2nc3cccc(C(N)=O)c3[nH]2)CCCN1` [Form A, 2-[(2R)-2-methyl-2-pyrrolidinyl]-1H-benzimidazole-7-carboxamide] showed a D10 in series [1] of 41.6 μm. In series [1], the D50 is 278.6 μm. The D90 in series [1] came to 1118 μm. In addition, the “MV (average based on volume)” value in series [1] is on record as 407.2 μm. The “XRPD pattern change before and after grinding” value in series [3] is recorded as “no significant change”. In addition, the Crystalline form change entry in series [4] (25° C./60% RH) and in series [4] (40° C./75% RH) was “No change” throughout. Moreover, the “Observation (dissolution)” value is listed as “Completely” in series [5] (11.2 mg in 1 mL water); “Completely” in series [5] (11.3 mg in 1 mL FeSSIF, pH 5.0); “Completely” in series [5] (11.5 mg in 1 mL FaSSIF, pH 6.5); “Completely” in series [5] (12.4 mg in 1 mL SGF). The “Weight of sample dissolved” value in series [5] (in 1 mL FaSSIF, pH 6.5) came to 11.5 mg; in series [5] (in 1 mL FeSSIF, pH 5.0), 11.3 mg; in series [5] (in 1 mL SGF), 12.4 mg; in series [5] (in 1 mL water), 11.2 mg. In addition, the “Solubility relative to crystalline forms disclosed in the prior art” value in series [5] (in SGF, FaSSIF, FeSSIF and water) was “at least 2 times”. This compound returned a solubility in series [5] (thermodynamic from solid, in SGF, FaSSIF, FeSSIF and water) of over 10000 µg/mL.

Values taken from US20190092756A1, “CRYSTALLINE FORM A OF 2-[(2R)-2-METHYL-2-PYRROLIDYL]-1H-BENZIMIDAZOLE-7-CARBOXAMIDE DIHYDROCHLORIDE AND PREPARATION METHOD THEREOF” (Crystal Pharmatech Co., Ltd., priority 2016, published 2019).
